Like-named read-outs stand apart in the source and are kept apart here. Bounds are passed on as bounds.

In this test the test system is HCV replicon. In words: HCV replicon luciferase reporter assay. In kind it is cell-based. The note with it: Table 5, read-out: IC50. The method, boiled down: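 Replicon-bearing dividing cells seeded at 5,000–7,500 cells/well, grown 24 h at 37° C/5% CO2, then exposed to test compound at various concentrations for a further 24–48 h. Replication/translation read by luciferase reporter; IC50 taken as compound amount giving 50% reduction in luciferase activity.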
(Replicon systems follow genome replication, usually without infectious particles.)

As usually defined, the IC50 is the concentration that gives 50% inhibition. As to `COC(=O)c1ccc(S(=O)(=O)NCCCNc2nsc3ccccc23)o1` [Compound 244, methyl 5-(N-(3-(benzo[d]isothiazol-3-ylamino)propyl)sulfamoyl)furan-2-carboxylate], for the setting “Hepatitis C virus”, the IC50 was less than 5 µM.
On the same count and under the same terms, the figure for `CCOc1cc(OCC)cc(C(=O)NCCCNc2nsc3ccccc23)c1` [Compound 391, N-(3-(benzo[d]isothiazol-3-ylamino)propyl)-3,5-diethoxybenzamide] is less than 5 µM.
On the same count and under the same terms, the figure for `CC(C)[C@H](N)C(=O)NCCNc1nsc2ccccc12` [Entry 75, (S)-2-Amino-N-(2-(benzo[d]isothiazol-3-ylamino)ethyl)-3-methylbutanamide] is greater than 5 µM; for `COc1ccc(-c2ccc(CN(CCCNc3nsc4ccccc34)C(=O)N(C)C)cc2)cc1` [Compound 315, 1-(3-(benzo[d]isothiazol-3-ylamino)propyl)-1-((4′-methoxybiphenyl-4-yl)methyl)-3,3-dimethylurea] it is less than 5 µM.
Turning to `O=S(=O)(NCCCNc1nsc2ccccc12)c1ccc(Br)cc1C(F)(F)F` [Compound 263, N-(3-(benzo[d]isothiazol-3-ylamino)propyl)-4-bromo-2-(trifluoromethyl)benzenesulfonamide], the IC50 (Hepatitis C virus) was less than 5 µM.
The same measure, in the same setting: then `CCCCNC(=O)c1ccc(C(=O)NCCNc2nsc3ccccc23)cc1` [Compound 422, N^1-(2-(benzo[d]isothiazol-3-ylamino)ethyl)-N^4-butylterephthalamide], with less than 5 µM; and `CCOc1ccc(C)c(-c2cccc(C(=O)NCCCNc3nsc4ccccc34)c2)c1` [Compound 381, N-(3-(benzo[d]isothiazol-3-ylamino)propyl)-3′-ethoxy-6′-methylbiphenyl-3-carboxamide], with less than 5 µM; and `Cc1cccnc1NCCCNc1nsc2ccccc12` [Compound 278, N^1-(benzo[d]isothiazol-3-yl)-N^3-(3-methylpyridin-2-yl)propane-1,3-diamine], with less than 5 µM.
Still for that read-out and setting: then `CN(CCCNc1nsc2ccccc12)S(=O)(=O)c1ccccc1C(F)(F)F` [Entry 240, N-(3-(benzo[d]isothiazol-3-ylamino)propyl)-N-methyl-2-(trifluoromethyl)benzenesulfonamide], with less than 5 µM.
Same read-out and setting: then `c1ccc(COc2cccc(CNCCCNc3nsc4ccccc34)c2)cc1` [Compound 328, N^1-(benzo[d]isothiazol-3-yl)-N^3-(3-(benzyloxy)benzyl)propane-1,3-diamine], with less than 5 µM; and `O=C(NCCNc1nsc2ccccc12)c1cccc(Br)n1` [Entry 27, N-(2-(Benzo[d]isothiazol-3-ylamino)ethyl)-6-bromopicolinamide], with greater than 5 µM.
`O=S(=O)(NCCCNc1nsc2ccccc12)c1cc(C(F)(F)F)cc(C(F)(F)F)c1` [Compound 246, N-(3-(benzo[d]isothiazol-3-ylamino)propyl)-3,5-bis(trifluoromethyl)benzenesulfonamide]: the 50% inhibitory concentration (IC50) (Hepatitis C virus) was less than 5 µM.
On to `O=C(NCCNc1nsc2ccccc12)c1ccc(C(F)(F)F)cc1F` [Compound 354, N-(2-(benzo[d]isothiazol-3-ylamino)ethyl)-2-fluoro-4-(trifluoromethyl)benzamide], for which the IC50 (Hepatitis C virus) is less than 5 µM.
Same read-out and setting: then `O=C(NCCCNc1nsc2ccccc12)c1cnc(O)c(Cl)c1` [Compound 452, N-(3-(benzo[d]isothiazol-3-ylamino)propyl)-5-chloro-6-hydroxynicotinamide], with greater than 5 µM; and `COC(=O)c1ccc(C(=O)NCCNc2nsc3ccccc23)nc1` [Entry 77, Methyl 6-(2-(Benzo[d]isothiazol-3-ylamino)ethylcarbamoyl)nicotinate], with greater than 5 µM; and `c1ccc2c(NCCNc3nsc4ccccc34)nsc2c1` [Compound 417, N^1,N^2-di(benzo[d]isothiazol-3-yl)ethane-1,2-diamine], with greater than 5 µM.
Regarding `COc1ccc(C)cc1-c1ccc(C(=O)NCCNc2nsc3ccccc23)cc1` [Compound 365, N-(2-(benzo[d]isothiazol-3-ylamino)ethyl)-2′-methoxy-5′-methylbiphenyl-4-carboxamide], for the setting “Hepatitis C virus”, the concentration for half-maximal inhibition (IC50) was less than 5 µM.
Still for that read-out and setting: then `COc1ccc(S(=O)(=O)NCCCNc2nsc3ccccc23)cc1OC` [Compound 264, N-(3-(benzo[d]isothiazol-3-ylamino)propyl)-3,4-dimethoxybenzenesulfonamide], with less than 5 µM; and `COc1ccc2oc(C(=O)NCCCNc3nsc4ccccc34)cc2c1` [Compound 437, N-(3-(benzo[d]isothiazol-3-ylamino)propyl)-5-methoxybenzofuran-2-carboxamide], with less than 5 µM.
On the same count and under the same terms, the figure for `COc1ccc(-c2ccc(CNCCCNc3nsc4ccc(Br)cc34)cc2)cc1` [Compound 404, N^1-(5-bromobenzo[d]isothiazol-3-yl)-N^3-((4′-methoxybiphenyl-4-yl)methyl)propane-1,3-diamine] is less than 5 µM.
On the same count and under the same terms, the figure for `Clc1cccc(NCCCNc2nsc3ccccc23)n1` [Entry 230, N^1-(benzo[d]isothiazol-3-yl)-N^3-(6-chloropyridin-2-yl)propane-1,3-diamine] is less than 5 µM; for `O=C(NCCCNc1nsc2ccccc12)c1cc2cc(Cl)ccc2o1` [Compound 436, N-(3-(benzo[d]isothiazol-3-ylamino)propyl)-5-chlorobenzofuran-2-carboxamide] it is less than 5 µM.
In the case of `CC(C)(C)NS(=O)(=O)c1ccc2c(NCCCN)nsc2c1` [Compound 508, 3-(3-aminopropylamino)-N-tert-butylbenzo[d]isothiazole-6-sulfonamide], the 50% inhibitory concentration (IC50) was greater than 5 µM.
Take `O=Cc1ccc(C(=O)NCCNc2nsc3ccccc23)cc1` [Compound 415, N-(2-(benzo[d]isothiazol-3-ylamino)ethyl)-4-formylbenzamide]: under “Hepatitis C virus”, the IC50 was greater than 5 µM.
The same measure, in the same setting: the figure for `COc1cccc(N2CCN(CC(O)COc3cccc(C(=O)NCCCNc4nsc5ccccc45)c3)CC2)c1` (stereo not drawn) [Entry 233, N-(3-(benzo[d]isothiazol-3-ylamino)propyl)-3-(2-hydroxy-3-(4-(3-methoxyphenyl)piperazin-1-yl)propoxy)benzamide] is less than 5 µM; for `O=S(=O)(NCCCNc1nsc2ccccc12)c1ccc(I)cc1` [Compound 325, N-(3-(benzo[d]isothiazol-3-ylamino)propyl)-4-iodobenzenesulfonamide] it is less than 5 µM; for `Cn1c(C(=O)NCCNc2nsc3ccccc23)cc2ccccc21` [Compound 412, N-(2-(benzo[d]isothiazol-3-ylamino)ethyl)-1-methyl-1H-indole-2-carboxamide] it is less than 5 µM.
On the same count and under the same terms, the figure for `Cc1cccnc1C(=O)NCCNc1nsc2ccccc12` [Entry 76, N-(2-(Benzo[d]isothiazol-3-ylamino)ethyl)-3-methylpicolinamide] is less than 5 µM; for `O=C(NCCCNc1nsc2ncccc12)C1CCN(c2nccc(C(F)(F)F)n2)CC1` [Compound 533, N-(3-(isothiazolo[5,4-b]pyridin-3-ylamino)propyl)-1-(4-(trifluoromethyl)pyrimidin-2-yl)piperidine-4-carboxamide] it is less than 5 µM; for `Cc1ccc(OC(C)C)c(-c2ccc(NC(=O)NCCCNc3nsc4ccccc34)cc2)c1` [Compound 392, 1-(3-(benzo[d]isothiazol-3-ylamino)propyl)-3-(2′-isopropoxy-5′-methylbiphenyl-4-yl)urea] it is less than 5 µM.

For the origin of these results see patent US7776847B2, “Benzisothiazoles useful for treating or preventing HCV infection” (priority 2005, dated 2010).
